{"source": "patent US20220226258A1", "about": "“COMPOSITIONS AND METHODS USING THYMOL AND/OR CARVACROL FOR INDUCTION OF AUTOPHAGY” (SOCIETE DES PRODUITS NESTLE S.A., priority 2019, published 2022)", "key": {"human Jurkat cells": {"tested_on": "human Jurkat cells", "experiment": "Autophagic flux (LC3-II, flow cytometry) in Jurkat cells", "format": "cell-based", "conditions": "thymol 1.95 to 250 μM, LC3-II median fluorescence intensity, FIG. 1", "procedure": "The human lymphocytic T cell line Jurkat (clone E6.1, ATCC TIB-152) has been used to measure autophagic flux in vitro. Cells were grown in RPMI medium with standard conditions (5% CO2, 37° C.) in a humidified atmosphere. For the experiment, cells were washed, counted and incubated at 1*105/well in duplicate in a 96-flat bottom well plate. Experimental conditions included negative controls (0.5% DMSO), rapamycin treatment as positive control (1 uM) and Earle's Balanced Salt Solution (EBSS) as a starvation medium. Cells received Thymol (in RPMI) at different concentrations ranging from 1.95 μM to 250 μM. In parallel, the same experimental conditions were prepared for the incubation with solution A, from the Flow Cellect Autophagy Kit from Merck, now Guava Autophagy LC3 antibody-based kit. The treatment with compound A blocks the lysosomal degradation of LC3 vesicles and is used to measure autophagic flux. Cells were incubated with thymol at 37° for 1.30 h. Solution A was added for additional 30 minutes. Cells were then transferred in a 96 V bottom plate for the LC3 antibody detection using the Guava Autophagy LC3 antibody-based kit, according the manufacturer's instructions. […] Offline analysis was performed with FCS Express Software and results were expressed as the median fluorescence intensity in the FITC channel (related to the amount of LC3-II present in the cells.)"}, "zebrafish larvae": {"tested_on": "zebrafish larvae", "experiment": "Autophagy reporter zebrafish line (LC3-ZsGreen punctae in skeletal muscle)", "format": "in vivo", "conditions": "16 hours of treatment, LC3 punctae with and without ammonium chloride, FIG. 2", "procedure": "After 16 hours of treatment larvae were anesthetized with 0.016% tricaine and imaged with ImageXpress confocal system at 20× magnification (Molecular Devices). Z stack images were captured for each larva and maximal projection images were produced. Ammonium chloride was added for additional 4 hours to block lysosomal degradation. Images were acquired again as before. In order to quantify autophagic flux, number of LC3 punctae have been calculated in presence and in absence of ammonium chloride with MetaXpress software (Molecular Devices) and normalized by zebrafish area."}, "[1]": {"tested_on": "liver steatosis in obese mice", "experiment": "Chronic treatment on a model of obesity (high fat diet), liver Oil Red O staining", "format": "in vivo", "conditions": "thymol 20 mg/kg/day for 8 weeks, FIG. 4", "procedure": "Mice were fed with high fat diet (Research Diets D12492: 60% fat, 20% protein, 20% carbohydrates) for 8 weeks. Mice were sacrificed by isofluorane inhalation followed by exsanguination. Livers were collected, embedded in OCT and frozen in isopentane. In order to visualize lipid droplets, liver sections of 10 μm were cut and stained by Oil Red O. Lipids size was calculated using imageJ software"}}}
{"smiles": "Cc1ccc(C(C)C)c(O)c1", "note": "[thymol]", "values": [{"measurement": "concentration from which thymol induced autophagy in a dose dependent manner", "setting": "human Jurkat cells", "result": "≥ 125", "unit": "µM"}, {"measurement": "concentration from which thymol induced autophagy in a dose dependent manner", "setting": "zebrafish larvae", "result": "≥ 50", "unit": "µM"}, {"measurement": "liver steatosis", "setting": "[1]", "result": "reduction of liver steatosis"}]}
